Assay results published in US6623933B1 (priority 1999, dated 2003).
“And” between values parts separate entries of the source, which are not always exact repeats. Equal values may be shown once. Where a name gives a salt, the structure may show the parent alone. Read-outs that look alike come from different tables or passages of the source.

Legend:
[1] = target: T1, NR1100+NR2A NMDA receptor (Rattus norvegicus, UniProt P35439+Q00959); experiment: NMDA-induced currents, Xenopus oocytes, Example 1; type: cell-based; details: for Percentage change in NMDA response: NR1100 + NR2A, steroid 100 μM, −100 mV
T1 construct: expressed in transfected cells; host or cells: Xenopus oocytes co-injected with NR1100 and NR2A cRNA
Description: Plasmids were obtained from the following individuals: Dr. Suzanne Zukin (Albert Einstein College of Medicine, Bronx, N.Y.), NR1100; Dr. Shigetada Nakanishi (Kyoto University Faculty of Medicine, Kyoto, Japan), NR2A; Dr. Stephen Heinemann (Salk Institute, San Diego, Calif.), GluR1 (flop), GluR3 (flop), and GluR6. Plasmids were linearized with BamH1 (NR1100), XhoI (NR2A, GluR1, GluR3) or XbaI (GluR6) prior to in vitro transcription with T3 (GluR1, GluR3, GluR6) or T7 (NR1100, NR2A) RNA polymerase using the Message Machine kit (Ambion, Austin, Tex.). […] RNA solutions (50-70 nl) were injected into oocytes for delivery of NR1100 (5 ng), NR1100:NR2A (1:10 ng), GluR1 (5 ng). GluR3 (5 ng), or GluR6 (20 ng). Oocytes were incubated in ND96 at 18-20° C. for 3-7 days prior to electrophysiological recording.
Steroid solutions were prepared as 70-100 mM frozen stocks in dimethyl sulfoxide (DMSO). The final DMSO concentration of all recording solutions was between 0.1% to 0.5% and was constant within an experiment.
Perfusion control and data acquisition were carried out using an automated oocyte electrophysiology workstation that was developed for the rapid collection of concentration-response data and real-time waveform analysis (Yaghoubi et al., Soc. Neurosci. Abstr. 20: 1109 (1995)). This system is implemented on a Macintosh IIci computer (Apple Computer, Cupertino, Calif.) equipped with MacA-DIOS II data acquisition and control hardware (GW Instruments, Somerville, Mass.). Drug application is controlled by the computer through a series of valves, using custom-written software based on the SuperScope II development environment, improving the efficiency and reproducibility of data collection. Experiments were carried out using an Axoclamp-2A voltage clamp amplifier (Axon Instruments, Foster City, Calif.) in two-electrode voltage clamp mode. Intracellular microelectrodes (1-3 MΩ) were filled with 3 M KCl. […] Membrane potential was clamped at −60 to −70 mV and stepped to −100 mV at the start of data acquisition unless otherwise stated. […] Current and voltage recordings were digitized at 100 Hz for analysis. GluR6 injected oocytes were treated for 10 min with 10 μg/ml concanavalin A to prevent fast desensitization.
Results are expressed as mean±S.E.M. Statistical comparisons were made using Student's t-test.

NR1111/NR2A = NR1111/NR2A (Rattus norvegicus, UniProt P35439+Q00959); design: agonist Emax: dose or concentration left out as unconfirmed
NR1011/NR2A = NR1011/NR2A (Rattus norvegicus, UniProt P35439+Q00959); design: agonist Emax: dose or concentration left out as unconfirmed
Sequence of NR1011/NR2A (Q00959 23-1464, other chains not shown): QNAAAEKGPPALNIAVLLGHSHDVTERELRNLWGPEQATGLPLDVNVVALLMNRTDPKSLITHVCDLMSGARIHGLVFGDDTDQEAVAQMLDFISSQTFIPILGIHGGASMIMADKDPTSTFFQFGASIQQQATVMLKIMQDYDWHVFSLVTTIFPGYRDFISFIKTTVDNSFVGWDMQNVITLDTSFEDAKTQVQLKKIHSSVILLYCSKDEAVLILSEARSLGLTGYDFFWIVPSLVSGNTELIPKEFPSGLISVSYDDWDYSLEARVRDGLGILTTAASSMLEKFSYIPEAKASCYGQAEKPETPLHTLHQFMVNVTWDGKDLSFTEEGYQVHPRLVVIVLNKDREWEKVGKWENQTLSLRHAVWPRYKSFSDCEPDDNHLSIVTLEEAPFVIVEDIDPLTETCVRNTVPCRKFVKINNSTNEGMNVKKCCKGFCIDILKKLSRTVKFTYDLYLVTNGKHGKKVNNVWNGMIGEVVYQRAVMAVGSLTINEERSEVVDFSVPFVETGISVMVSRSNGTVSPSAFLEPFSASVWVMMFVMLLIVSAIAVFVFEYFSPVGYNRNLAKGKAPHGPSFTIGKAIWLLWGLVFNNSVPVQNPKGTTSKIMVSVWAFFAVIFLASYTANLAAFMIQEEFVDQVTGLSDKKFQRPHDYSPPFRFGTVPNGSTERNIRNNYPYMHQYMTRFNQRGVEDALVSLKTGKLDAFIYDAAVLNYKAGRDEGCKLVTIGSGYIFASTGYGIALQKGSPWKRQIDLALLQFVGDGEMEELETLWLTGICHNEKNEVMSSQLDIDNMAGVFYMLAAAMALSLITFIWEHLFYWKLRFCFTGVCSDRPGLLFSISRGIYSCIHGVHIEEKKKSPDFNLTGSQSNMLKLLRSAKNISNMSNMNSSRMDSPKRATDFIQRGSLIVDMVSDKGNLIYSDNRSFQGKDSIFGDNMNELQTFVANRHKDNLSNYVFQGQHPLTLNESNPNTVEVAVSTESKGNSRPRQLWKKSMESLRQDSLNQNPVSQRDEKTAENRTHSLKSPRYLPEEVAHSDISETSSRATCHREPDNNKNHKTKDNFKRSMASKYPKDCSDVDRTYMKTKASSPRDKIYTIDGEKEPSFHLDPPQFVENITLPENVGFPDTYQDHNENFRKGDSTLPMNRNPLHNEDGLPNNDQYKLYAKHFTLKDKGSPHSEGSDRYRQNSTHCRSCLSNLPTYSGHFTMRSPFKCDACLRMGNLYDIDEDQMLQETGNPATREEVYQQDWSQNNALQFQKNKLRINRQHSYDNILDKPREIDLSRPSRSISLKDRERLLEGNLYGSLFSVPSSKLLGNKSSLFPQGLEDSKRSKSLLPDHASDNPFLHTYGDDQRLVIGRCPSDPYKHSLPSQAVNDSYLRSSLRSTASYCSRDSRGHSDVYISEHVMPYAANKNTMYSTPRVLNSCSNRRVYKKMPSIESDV

NR1101/NR2A = NR1101/NR2A (Rattus norvegicus, UniProt P35439+Q00959); design: agonist Emax: dose or concentration left out as unconfirmed
Sequence of NR1101/NR2A (Q00959 23-1464, other chains not shown): as above

NR1100/NR2A = NR1100/NR2A (Rattus norvegicus, UniProt P35439+Q00959); design: agonist nHill / agonist Emax: dose or concentration left out as unconfirmed
NR1010/NR2A = NR1010/NR2A (Rattus norvegicus, UniProt P35439+Q00959); design: agonist nHill / agonist Emax: dose or concentration left out as unconfirmed
NR1/NR2C (NR1100) = NR1/NR2C (NR1100) (Rattus norvegicus, UniProt P35439+Q00961)
Description: (§1) Plasmids containing the NR1100 (NR1G) and NR2A cDNA inserts were kindly provided by Dr. Nakanishi (Kyoto University Faculty of Medicine, Kyoto, Japan). Plasmids containing the NR2B, NR2C and NR2D cDNA inserts were kindly provided by Dr. P. Seeburg (Heidelberg University, Heidelberg, Germany). Plasmids were linearized with appropriate restriction enzyme prior to in vitro transcription using the Message Machine kit (Ambion, Inc., Austin, Tex.).
(§2) Female, oocyte-positive Xenopus laevis frogs were purchased from Xenopus I (Dexter, Mich.). […] Oocytes were injected with 50 nL of RNA solutions using an electronic microinjector (Drummond Inc., Broomall, Pa.). […] The injected oocytes were used for experiments following 1-5 days of incubation in Barth's solution at 18-20° C.
(§3) The microelectrodes were fabricated from borosilicate glass capillaries with a programmed puller (Sutter Instrument Co., Calif.). Microelectrode resistance was 1-3 MΩ_when filled with 3 M KCl.
(§4) Except where otherwise stated, oocytes were clamped at a holding potential of −70 mV during data acquisition. The membrane current was filtered at 500 Hz and sampled at 100 Hz. Drugs were applied using a gravity-driven external perfusion system. The working volume of the recording chamber was 30 μl and the rate of the perfusion was 50 μl/sec. The drug application lasted 10 sec and was followed by 60 s wash. Data acquisition and external perfusion were controlled using custom-written software implemented in the SuperScope II development environment (GW Instruments, Mass.). All experiments were performed at room temperature of 22-24° C. Peak or steady-state current measurements were normalized and expressed as a fraction of the peak or steady-state control current measurements, which were performed before and after application of every single concentration of agonists or steroids.
(§5) Concentration-response data were analyzed by nonlinear regress ion using the logistic equation Response=Emax/(1+(EC50/c)^nH), where c is concentration, Emaxis the maximum response, nHis the Hill coefficient. The data are presented as mean±SEM. EC50values are averaged as logarithms (De Lean et al., Am. J. Physiol. 235: E97-E102 (1978))±the SEM of the log EC50. […] The pooled data were simultaneously fitted to the logistic equation, either with Emax and EC50 constrained to be identical in the presence and absence of PS, or allowing one or both to vary independently. […] This was regarded as indicating a significant treatment effect of PS, but the change in EC50and Emaxwas not considered significant. […] No attempt was made to test the generally small changes in nHfor statistical significance.

NR1/NR2D (NR1100) = NR1/NR2D (NR1100) (Rattus norvegicus, UniProt P35439+Q62645)
Sequence of NR1/NR2D (NR1100) (Q62645 28-1323, other chains not shown): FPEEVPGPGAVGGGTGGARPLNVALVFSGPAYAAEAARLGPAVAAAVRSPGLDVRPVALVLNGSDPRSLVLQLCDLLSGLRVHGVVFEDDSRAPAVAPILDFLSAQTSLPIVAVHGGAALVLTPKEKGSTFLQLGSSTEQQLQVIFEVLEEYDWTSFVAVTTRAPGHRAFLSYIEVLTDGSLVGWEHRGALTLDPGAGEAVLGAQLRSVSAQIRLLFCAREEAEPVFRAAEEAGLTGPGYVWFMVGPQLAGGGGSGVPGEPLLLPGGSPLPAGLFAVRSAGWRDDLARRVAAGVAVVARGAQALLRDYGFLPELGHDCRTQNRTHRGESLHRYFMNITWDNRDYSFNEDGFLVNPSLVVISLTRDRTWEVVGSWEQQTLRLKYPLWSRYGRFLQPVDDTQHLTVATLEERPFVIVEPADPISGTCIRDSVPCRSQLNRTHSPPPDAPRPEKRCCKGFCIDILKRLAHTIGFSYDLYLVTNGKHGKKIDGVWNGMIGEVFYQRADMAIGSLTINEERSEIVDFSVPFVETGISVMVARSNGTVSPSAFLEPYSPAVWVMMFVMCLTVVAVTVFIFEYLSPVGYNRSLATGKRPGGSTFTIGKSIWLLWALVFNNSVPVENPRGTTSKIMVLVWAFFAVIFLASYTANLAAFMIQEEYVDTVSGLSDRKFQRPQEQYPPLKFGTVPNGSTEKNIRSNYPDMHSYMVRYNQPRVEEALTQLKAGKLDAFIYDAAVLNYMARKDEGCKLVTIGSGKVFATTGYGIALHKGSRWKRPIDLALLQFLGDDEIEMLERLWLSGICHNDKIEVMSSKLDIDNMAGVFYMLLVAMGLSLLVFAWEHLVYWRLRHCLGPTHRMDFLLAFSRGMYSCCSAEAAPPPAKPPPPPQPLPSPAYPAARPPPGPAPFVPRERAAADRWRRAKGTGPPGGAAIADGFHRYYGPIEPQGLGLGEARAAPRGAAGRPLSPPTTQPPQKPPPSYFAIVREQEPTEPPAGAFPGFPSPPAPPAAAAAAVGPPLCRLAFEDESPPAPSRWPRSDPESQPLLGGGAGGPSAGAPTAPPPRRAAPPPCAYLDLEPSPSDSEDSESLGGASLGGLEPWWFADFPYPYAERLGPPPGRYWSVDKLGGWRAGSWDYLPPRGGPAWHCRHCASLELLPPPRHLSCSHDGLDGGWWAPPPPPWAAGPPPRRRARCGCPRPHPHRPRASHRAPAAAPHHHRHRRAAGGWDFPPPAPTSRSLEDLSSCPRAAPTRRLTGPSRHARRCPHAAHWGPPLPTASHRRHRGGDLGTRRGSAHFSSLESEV
Description: as §1, §2, §3, §4, §5

Penta-Mutant/NR2A = Penta-Mutant/NR2A (Rattus norvegicus, UniProt P35439+Q00959, K193A/K202A/R187A/R233A/R252A); experiment: NMDA-induced currents, Xenopus oocytes, Example 5
Description: Plasmids were linearized with appropriate restriction enzyme prior to in vitro transcription using the Message Machine kit (Ambion, Inc., Austin, Tex.).
Female, oocyte positive Xenopus laevis frogs were purchased from Xenopus I (Dexter, Mich). […] Oocytes were injected with 50 nL of RNA solutions using an electronic microinjector (Drummond Inc., Broomall, Pa.). […] The injected oocytes were used for experiments following 1-5 days of incubation in Barth's solution at 18-20° C.
The microelectrodes were fabricated with a programmed puller (Sutter Instrument Co., Calif.) from borosilicate glass capillaries and were filled with 3 M KCl solution. The resistance of filled microelectrodes was in the range of 1-3 MΩ. […] If not mentioned otherwise, during data acquisition oocytes were clamped at a holding potential of −70 mV. The membrane current was filtered at 500 Hz and sampled at 100 Hz. Drugs were applied using a gravity driven external perfusion system. The working ,volume of the recording chamber was 30 μl and the rate of the perfusion was 50 μl/sec. The drug application lasted 10 sec and was followed by a 60 sec wash. The data acquisition and external perfusion control were done using the SuperScopeII software package (GW Instruments, Mass.). All experiments were performed at room temperature (22-24° C.). Peak or steady-state current measurements were normalized and expressed as a fraction of the peak or steady-state control current measurements, which were performed before and after application of every single consentration of agonist or steroid. […] The data are presented as mean±S.E.M. with number of experiments in parentheses.

CC(=O)[C@H]1CC[C@H]2[C@@H]3CC[C@@H]4C[C@H](OS(=O)(=O)O)CC[C@]4(C)[C@H]3CC[C@]12C [3α5βS, 3α5β-pregnanolone sulfate]
EC50 [1]: 41 µM | Percentage change in NMDA response ([1]; 100 μM NMDA): −64 ± 3(7) % | maximum extent of inhibition by 3α5βS (NR1111/NR2A; NR1111/NR2A): 75±7% | 3α5βS Emax (NR1111/NR2A; splice variant 111 /NR2A): −0.75 ± 0.07 | 3α5βS nHill (NR1111/NR2A; splice variant 111 /NR2A): 1.09 ± 0.9 | 3α5βS Emax (NR1011/NR2A; splice variant 011 /NR2A): −0.86 ± 0.04 | 3α5βS nHill (NR1011/NR2A; splice variant 011 /NR2A): 0.96 ± 0.06 | 3α5βS Emax (NR1101/NR2A; splice variant 101 /NR2A): −0.90 ± 0.07 | 3α5βS nHill (NR1101/NR2A; splice variant 101 /NR2A): 1.05 ± 0.25 | maximum extent of inhibition by 3α5βS (NR1100/NR2A; NR1100/NR2A): 99±3% | 3α5βS Emax (NR1100/NR2A; splice variant 100 /NR2A): −0.99 ± 0.03 | 3α5βS nHill (NR1100/NR2A; splice variant 100 /NR2A): 0.83 ± 0.02 | 3α5βS Emax (NR1010/NR2A; splice variant 010 /NR2A): −0.85 ± 0.02 | 3α5βS nHill (NR1010/NR2A; splice variant 010 /NR2A): 1.04 ± 0.06 | 3α5βS nH (NR1/NR2C (NR1100); NR1/NR2C): 1.34 ± 0.04 | 3α5βS nH (NR1/NR2D (NR1100)): 1.14 ± 0.16 | percent decrease in maximum inward current (Penta-Mutant/NR2A; Penta-Mutant/NR2A, 100 uM steroid, 300 uM NMDA, 50 uM Glycine): 42.79±2.29%

CN[C@H](CC(=O)O)C(=O)O [NMDA, N-methyl-D-aspartate]
NMDA Emax (normalized to 100 μM NMDA response) ([1]; NR1100+NR2A, +100 μM 3α5βS): 0.35 | NMDA nH ([1]; NR1100+NR2A, +100 μM 3α5βS): 1.66 | NMDA Emax (normalized to 100 μM NMDA response) ([1]; NR1100+NR2A, +100 μM PS): 3.21 | NMDA nH ([1]; NR1100+NR2A, +100 μM PS): 1.54 | NMDA Emax (normalized to 100 μM NMDA response) ([1]; NR1100+NR2A, control): 1.14 | NMDA nH ([1]; NR1100+NR2A, control): 1.43 | EC50 ([1]; read-out: NMDA EC50, NR1100+NR2A, +100 μM 3α5βS): 15 µM | EC50 ([1]; read-out: NMDA EC50, NR1100+NR2A, +100 μM PS): 30 µM | agonist Emax (NR1111/NR2A; NR1111/NR2A, absence of PS): 1.34 ± 0.09 | agonist nHill (NR1111/NR2A; NR1111/NR2A, absence of PS): 1.49 ± 0.02 | agonist nHill (NR1111/NR2A; NR1111/NR2A, presence of 100 mM PS): 1.33 ± 0.22 | agonist Emax (NR1111/NR2A; NR1111/NR2A, presence of PS): (2.27 ± 0.07) | agonist Emax (NR1011/NR2A; NR1011/NR2A, absence of PS): 1.14 ± 0.02 | agonist nHill (NR1011/NR2A; NR1011/NR2A, absence of PS): 1.39 ± 0.07 | agonist nHill (NR1011/NR2A; NR1011/NR2A, presence of 100 mM PS): 1.11 ± 0.12 | agonist Emax (NR1011/NR2A; NR1011/NR2A, presence of PS): (1.68 ± 0.06) | agonist Emax (NR1101/NR2A; NR1101/NR2A, absence of PS): 1.33 ± 0.07 | agonist nHill (NR1101/NR2A; NR1101/NR2A, absence of PS): 1.31 ± 0.05 | agonist nHill (NR1101/NR2A; NR1101/NR2A, presence of 100 mM PS): 1.15 ± 0.12 | agonist Emax (NR1101/NR2A; NR1101/NR2A, presence of PS): (1.78 ± 0.06) | agonist Emax (NR1100/NR2A; NR1100/NR2A, absence of PS): 1.36 ± 0.04 | agonist nHill (NR1100/NR2A; NR1100/NR2A, absence of PS): 1.13 ± 0.04 | agonist Emax (NR1100/NR2A; NR1100/NR2A, presence): (1.60 ± 0.07 | agonist nHill (NR1100/NR2A; NR1100/NR2A, presence): 1.20 ± 0.06 | agonist Emax (NR1010/NR2A; NR1010/NR2A, absence of PS): 1.18 ± 0.03 | agonist nHill (NR1010/NR2A; NR1010/NR2A, absence of PS): 1.19 ± 0.06 | agonist Emax (NR1010/NR2A; NR1010/NR2A, presence of PS): (1.53 ± 0.08) | agonist nHill (NR1010/NR2A; NR1010/NR2A, presence of PS): 1.13 ± 0.09 | agonist Emax (NR1/NR2C (NR1100); NR1/NR2C, +100 μM PS): 0.69 | agonist nH (NR1/NR2C (NR1100); NR1/NR2C, +100 μM PS): 1.33 ± 0.03 | agonist Emax (NR1/NR2C (NR1100); NR1/NR2C, no PS): 1.05 ± 0.01 | agonist nH (NR1/NR2C (NR1100); NR1/NR2C, no PS): 1.18 ± 0.02 | EC50 (NR1/NR2C (NR1100); read-out: agonist EC50, NR1/NR2C, +100 μM PS): 15 µM | agonist Emax (NR1/NR2D (NR1100); +100 μM PS): 0.71 | agonist nH (NR1/NR2D (NR1100); +100 μM PS): 1.17 ± 0.01 | agonist Emax (NR1/NR2D (NR1100); no PS): 1.02 ± 0.01 | agonist nH (NR1/NR2D (NR1100); no PS): 1.26 ± 0.09 | EC50 (NR1/NR2D (NR1100); read-out: agonist EC50, +100 μM PS, unit cell empty): 6.2 µM | EC50 (NR1/NR2D (NR1100); read-out: agonist EC50, no PS): 8 µM | EC50 (Penta-Mutant/NR2A; read-out: NMDA EC50, Penta-mutant/NR2A): 55 ± 3.4 µM

pregnenolone sulfate [PS]
Percentage change in NMDA response ([1]; 100 μM NMDA): +281 ± 27(7) % | maximum enhancement of NMDA response ([1]; NR1100+NR2A, 100 μM NMDA): 343% | steroid Emax (NMDA-induced current relative to control) ([1]; NR1100+NR2A, 100 μM NMDA): 4.43 | Maximum potentiation of NMDA-induced current by PS (NR1111/NR2A; NR1111/NR2A): 1.51±0.04 fold | PS nHill (NR1111/NR2A; NR1111/NR2A): 1.28 ± 0.19 | PS Emax (NR1111/NR2A; NR1111/NR2A, curve 1+Emax/(1+(EC50/c)n)): 0.51 ± 0.04 | Maximum potentiation of NMDA-induced current by PS (NR1011/NR2A; NR1011/NR2A): 2.14±0.17 fold | PS Emax (NR1011/NR2A; NR1011/NR2A): 1.14 ± 0.17 | PS nHill (NR1011/NR2A; NR1011/NR2A): 1.18 ± 0.18 | Maximum potentiation of NMDA-induced current by PS (NR1101/NR2A; NR1101/NR2A): 1.66±0.10 fold | PS Emax (NR1101/NR2A; NR1101/NR2A): 0.66 ± 0.10 | PS nHill (NR1101/NR2A; NR1101/NR2A): 1.52 ± 0.24 | Maximum potentiation of NMDA-induced current by PS (NR1100/NR2A; NR1100/NR2A): 1.67±0.07 fold | PS Emax (NR1100/NR2A; NR1100/NR2A): 0.67 ± 0.07 | PS nHill (NR1100/NR2A; NR1100/NR2A): 1.33 ± 0.08 | PS Emax (NR1010/NR2A; NR1010/NR2A): 1.03 ± 0.09 | PS nHill (NR1010/NR2A; NR1010/NR2A): 1.30 ± 0.18 | fold less potent as inhibitor of NR1/NR2C and NR1/NR2D than in potentiating NR1/NR2A and NR1/NR2B (NR1/NR2C (NR1100)): 3.4- to 5.6 fold | PS nH (NR1/NR2C (NR1100); NR1/NR2C): 1.32 ± 0.29 | inhibition of NMDA-induced current (NR1/NR2C (NR1100); NR1/NR2C, 100 μM PS, […] μM NMDA): 35±3% | PS Emax (% Change) (NR1/NR2C (NR1100); NR1/NR2C, […] μM NMDA, 10 μM glycine): −63 ± 9% | PS nH (NR1/NR2D (NR1100)): 1.16 ± 0.08 | PS Emax (% Change) (NR1/NR2D (NR1100); 10 μM NMDA, 10 μM glycine): −70 ± 6% | inhibition of NMDA response (NR1/NR2D (NR1100); 100 μM PS, 10 μM NMDA): 26±1% | reduction in PS potentiation of the NMDA response vs wild type (Penta-Mutant/NR2A; 100 uM PS, 300 uM NMDA, 50 uM Glycine): 40% and 47.5±8.80%
